Experimental data: ChEMBL document CHEMBL1201862, “PubChem BioAssay data set” (2004)
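Test compounds were applied to cells in 96-well plates for 48 hours at 5 doses. GI50 marks 50% less growth.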 Calls of active or inactive are those of the source. Rule as the data show it: active = GI50 up to about 1.1 µM and inactive = higher.

Legend:
Assay in all cases: NCI-60 cell line screen, 48 h
UACC-257 = test system: UACC-257
KM12 = test system: KM12
SR = test system: SR
OVCAR-5 = test system: OVCAR-5
MDA-MB-231 = test system: MDA-MB-231
SNB-19 = test system: SNB-19
NCI-H522 = test system: NCI-H522
MDA-N = test system: MDA-N
M14 = test system: M14
HCT-116 = test system: HCT-116
TK-10 = test system: TK-10
OVCAR-3 = test system: OVCAR-3
CAKI-1 = test system: CAKI-1
UO-31 = test system: UO-31
HT-29 = test system: HT-29
IGROV-1 = test system: IGROV-1
SF-539 = test system: SF-539
NCI/ADR-RES = test system: NCI/ADR-RES
RXF 393 = test system: RXF 393
PC-3 = test system: PC-3
UACC-62 = test system: UACC-62
HOP-92 = test system: HOP-92
HOP-62 = test system: HOP-62
EKVX = test system: EKVX
SN12C = test system: SN12C
HCC 2998 = test system: HCC 2998
DU-145 = test system: DU-145
K562 = test system: K562
U-251 = test system: U-251
SK-MEL-5 = test system: SK-MEL-5
MCF7 = test system: MCF7
MOLT-4 = test system: MOLT-4
SK-MEL-2 = test system: SK-MEL-2
Malme-3M = test system: Malme-3M
SF-295 = test system: SF-295
A498 = test system: A498
A549 = test system: A549
NCI-H23 = test system: NCI-H23
HL-60 = test system: HL-60
SK-OV-3 = test system: SK-OV-3
Hs-578T = test system: Hs-578T
ACHN = test system: ACHN
COLO 205 = test system: COLO 205
T47D = test system: T47D
NCI-H226 = test system: NCI-H226
RPMI-8226 = test system: RPMI-8226
SW-620 = test system: SW-620
786-0 = test system: 786-0
NCI-H460 = test system: NCI-H460
LOX IMVI = test system: LOX IMVI
CCRF-CEM = test system: CCRF-CEM
SK-MEL-28 = test system: SK-MEL-28
MDA-MB-435 = test system: MDA-MB-435
SF-268 = test system: SF-268
HCT-15 = test system: HCT-15
OVCAR-4 = test system: OVCAR-4
OVCAR-8 = test system: OVCAR-8
SNB-75 = test system: SNB-75

Measured: GI50

COc1ccc(CCN2CCOCC2)cc1
> 100 µM: HCT-15
inactive: UACC-257 > 100 µM | KM12 > 100 µM | SR > 100 µM | OVCAR-5 > 100 µM | MDA-MB-231 > 100 µM | SNB-19 > 100 µM | NCI-H522 > 100 µM | MDA-N > 100 µM | M14 > 100 µM | HCT-116 > 100 µM | TK-10 > 100 µM | OVCAR-3 41.8 µM | CAKI-1 > 100 µM | UO-31 > 100 µM | HT-29 > 100 µM | IGROV-1 > 100 µM | SF-539 > 100 µM | NCI/ADR-RES > 100 µM | RXF 393 > 100 µM | PC-3 > 100 µM | UACC-62 > 100 µM | HOP-92 > 100 µM | HOP-62 > 100 µM | EKVX > 100 µM | SN12C > 100 µM | HCC 2998 > 100 µM | DU-145 > 100 µM | K562 > 100 µM | U-251 > 100 µM | SK-MEL-5 > 100 µM | MCF7 > 100 µM | MOLT-4 > 100 µM | SK-MEL-2 > 100 µM | Malme-3M > 100 µM | SF-295 > 100 µM | A498 > 100 µM | A549 > 100 µM | NCI-H23 > 100 µM | HL-60 > 100 µM | SK-OV-3 > 100 µM | Hs-578T > 100 µM | ACHN > 100 µM | COLO 205 > 100 µM | T47D > 100 µM | NCI-H226 > 100 µM | RPMI-8226 > 100 µM | SW-620 > 100 µM | 786-0 > 100 µM | NCI-H460 > 100 µM | LOX IMVI > 100 µM | CCRF-CEM > 100 µM | SK-MEL-28 > 100 µM | MDA-MB-435 > 100 µM | SF-268 > 100 µM

Nc1nc(Cl)nc2c1ncn2C1CCC(COP(=O)(O)OP(=O)(O)OP(=O)(O)O)O1 (centres undefined)
34.8 µM: HCT-15
inactive: UACC-257 41.6 µM | KM12 32.4 µM | SR 23.1 µM | OVCAR-5 22.8 µM | MDA-MB-231 26.8 µM | SNB-19 > 100 µM | NCI-H522 25.8 µM | MDA-N 38 µM | M14 16.8 µM | HCT-116 35.2 µM | TK-10 25.1 µM | OVCAR-3 50.2 µM | CAKI-1 6.89 µM | UO-31 12.7 µM | HT-29 32 µM | IGROV-1 30.5 µM | SF-539 67.3 µM | NCI/ADR-RES 21.8 µM | RXF 393 24.5 µM | PC-3 23.1 µM | UACC-62 18.1 µM | HOP-92 23.7 µM | HOP-62 19.2 µM | OVCAR-4 24.9 µM | EKVX 40.1 µM | SN12C 38.8 µM | HCC 2998 28.1 µM | DU-145 23.3 µM | U-251 37.5 µM | MCF7 29.4 µM | MOLT-4 65 µM | Malme-3M > 100 µM | SF-295 17.9 µM | A498 26.1 µM | A549 32.7 µM | NCI-H23 19.9 µM | HL-60 28.5 µM | SK-OV-3 57.3 µM | Hs-578T 29.7 µM | ACHN 25.2 µM | COLO 205 20.5 µM | T47D 23.8 µM | NCI-H226 27.7 µM | SW-620 32.4 µM | 786-0 37.3 µM | NCI-H460 41.6 µM | LOX IMVI 28.3 µM | CCRF-CEM 44.3 µM | OVCAR-8 21.4 µM | SK-MEL-28 20.4 µM | SNB-75 34.4 µM | MDA-MB-435 23 µM | SF-268 47.9 µM
